Experiments:
[1] = target: native cockroach ryanodine receptors (roach femoral muscle membranes) (Periplaneta americana, UniProt A0ABQ8T696); assay: Radioligand displacement ([3H]-GN analog Cpd 1) on roach femoral muscle membranes; assay type: binding; conditions: for IC50: displacement of [3H]-Cpd 1, roach muscle membranes, 60 min at 32° C., read-out: Displacement IC50 (nM) P. americana; for Radioligand Displacement (P. americana): Table 6, result in words
Protocol: Binding to Roach Femoral Muscle Membranes:
Assays were carried out in triplicate.

[2] = test system: native cockroach ryanodine receptors (in embryonic neuronal cells); assay: Calcium release assay, calcium imaging of embryonic cockroach neuronal cells (Fluo-4); assay type: cell-based, Periplaneta americana; conditions: for Calcium Release (P. americana): Table 6, result in words
Excerpt: Embryonic neuronal cultures of the American cockroach Periplaneta americana were established, with minor modifications, following the method of Beadle and Lees (1988) (in Cell Culture Approaches to Invertebrate Neuroscience, Academic Press, New York, pp 123-127). Briefly, 26-27-day old oothecae were collected, surface-sterilized and cut open along a line one-third of the distance below the dorsal midline. The heads were removed and placed in Schneider's Drosophila medium (Invitrogen Life Technologies™, Carlsbad, Calif.). Using fine forceps 40 brains were individually removed and placed in a small glass vial containing 700 μl of ‘5+4’ medium (‘5+4’ medium contained 5 parts Schneider's Drosophila medium plus 4 parts roach Basal Medium Eagle, with Earle's salts (BME, Sigma™, St. Louis, Mo.). Roach BME (with Earle's salts) contained 5 parts Hepes (1 M), 1 part penicillin/streptomycin and 44 parts BME (with Earle's salts). ‘5+4’ medium was made fresh and sterile filtered (0.2 μm filter) just prior to use). The brains were dissociated by sequential trituration as follows: 1) brains were passed through a standard Pasteur pipette 10 times; 2) the resulting tissue suspension was passed an additional 5 times through a Pasteur pipet with tip flamed to about half of its original diameter; 3) a final 5 passes were performed using a Pasteur pipet with tip flamed to slightly less than half of its original diameter. A repeat pipettor was used to dispense a 5 μl volume of the resulting suspension into the center of each well of a 96-well, glass-bottom plate previously coated with poly-L-lysine (0.2 mg/ml solution). Cells attached to the bottom of the wells during a 50 min incubation at 27-29° C. 150 ul of a 1:1 mixture of Leibovitz's L-15 medium and Yunker's modified Grace's medium was added, and plates were maintained in a humid incubator at 27-29° C. until use. After cells were allowed to attach wells were filled with a 1:1 mixture of Leibovitz's L-15 medium and Yunker's modified Grace's medium (Leibovitz's L-15 and Grace's medium were obtained from Invitrogen Life Technologies™, Carlsbad, Calif. and Yunker's modified Grace's medium was made with Grace's medium modified by addition of 5 mg L-methionine, 10 mg L-alanine, 182 mg MgCl2.6H20, 1 g Albumin Fraction V, 7 ml Fetal bovine serum, 10 ml Chick embryo extract, 2 ml Penicillin/Streptomycin, and 2 mg 20-hydroxyecdysone (prepared in ethanol prior to addition) to a final volume of 100 ml and sterile filtered (0.2 μm filter)). Cells were maintained in a high humidity incubator at 29° C. until testing.
The calcium imaging and acquisition protocols using roach neuronal cells is as follows:
Cells were rinsed in standard physiological saline having the following composition (mM): NaCl 190; CaCl2 9; KCl 3.1; probenicid 1; Tris buffer 10; pH 7.2. Cells were then bathed in standard physiological saline containing the calcium sensitive fluoroprobe Fluo-4 AM (2 μM) and Pluronic F127 (0.002%) for 45 min. Cells were then rinsed in standard physiological saline for at least 15 min prior to testing. Within the hour prior to testing, standard physiological saline was replaced with standard physiological saline containing the organic cation channel blocker pimozide (10 μM), to inhibit influx of external calcium through voltage-gated calcium channels. The 96-well plate was placed on a Prior™ motorized stage mounted onto a Nikon Diaphot microscope and imaged using a 20× Fluor objective (NA 0.75). Individual wells from the 96-well plate were sequentially excited with light at 495 nm, and the emitted fluorescence at 530 nm was detected using a Hamamatsu ORCA ER digital camera with 2 pixel binning (image size 672×512 pixels).
Acquisition control, image processing and image analysis were conducted using Universal Imaging Corporation's MetaMorph™ imaging software (Universal Imaging, West Chester, Pa.). A series of 3 “control” images were acquired for each well. […]

[3] = target: T1, recombinant Drosophila melanogaster ryanodine receptors (expressed in Sf9 cells) (Drosophila melanogaster, UniProt Q24498); assay type: cell-based; conditions: for Calcium Release (D. melanogaster): Table 6, result in words, receptor transiently or stably expressed in Sf9 cells; for Calcium Release Threshold (nM) D. melanogaster: receptor expressed in Sf9 cells
T1 construct: expressed in transfected cells
Protocol: The Spodoptera frugiperda cell line Sf9 used for transfection studies, was maintained in Sf-900 II SFM medium (Invitrogen Life Technologies™, Carlsbad, Calif.) in T-75 flasks incubated at 27° C. It is understood that those skilled in the art might choose alternative cell types such as the Spodoptera frugiperda cell line Sf21 or the Drosophila cell line S2. For the purpose of general handling and propagation, cells were suspended through scraping or agitation and a volume of cell suspension was added to each well of a poly-L-lysine coated 96-well, glass-bottom plate so as to provide 70-80% confluence. Cells were maintained in an incubator at 27° C. until testing.
SF900-II media was used to bring the final volume in the dish to 2 ml and the cells were incubated at 27 degrees C. for 21 h. Following the incubation the media was aspirated from the dish and replaced with 1 ml of SF900-II media pre-warmed to 27 degrees C.
The transient transfection was carried out following an InsectSelect BSD System manual (Invitrogen Life Technologies™, Carlsbad, Calif.). […] The transfection was accomplished by adding the transfection solution drop-wise to the dish and incubating 4 h at room temperature with gentle rocking. […]
(§1) Several drops of a suspension of recombinant Spodoptera frugiperda cell line, Sf9, transiently expressing insect ryanodine receptors were placed on a poly-L-lysine-coated coverslip and allowed to attach. Cells were then rinsed in physiological saline having the following composition (mM): NaCl 130; KCl 5.4; MgCl2 1.2; CaCl2 1.0; NaHCO3 4.2; NaH2P04 7.3; Glucose 10; Sucrose 63; MES 20; pH 6.3. Cells were then bathed in physiological saline containing the calcium sensitive fluoroprobe, Fura-2 AM (2 μM), and Pluronic F127 (0.002%) for 30 min. Cells were rinsed in standard physiological saline for at least 15 min prior to testing. Testing was conducted in standard physiological saline, as the cell lines are devoid of functional voltage-gated calcium channels.
Cell-attached coverslips were placed in a sealed chamber with physiological saline continuously perfused across the cells using a peristaltic pump. Test compounds solubilized in physiological saline were applied by switching the perfusate source.
(§2) For studies involving the stable recombinant Spodoptera frugiperda cell line, Sf9, (other cell lines could also be used such as Sf21, S2, etc) expressing an insect ryanodine receptor from Drosophila melanogaster, or Heliothis virescens (alternatively receptors from other species such as Myzus persicae, Peregrinus maidis, Aphis gossypii, etc) were grown in T75 (or other appropriate sized) flasks in supplemented Grace's insect medium. Cells were maintained in an incubator at 22° C. until testing. Cells were suspension-loaded with the calcium sensitive fluoroprobe, Fura-2 AM (1-2 μM) and Pluronic F127 (0.002%) in culture medium for 30 minutes under agitation. Cells were then centrifuged and the pellet resuspended in physiological saline having the following composition (mM): NaCl 130; KCl 5.4; MgCl2 1.2; CaCl2 1.0; NaHCO3 4.2; NaH2P04 7.3; Glucose 10; Sucrose 63; MES 20; pH 6.3 at approximately 150,000-200,000 cells per well (96-well plate). After a 30 minute equilibration period the cell plate was tested using a Molecular Devices' FlexStation™ system with dual wavelength excitation (340 and 380 nm) and fluorescence emission measured at 510 nm. Test and control samples were added using integrated fluidics and the intracellular calcium monitored over a 2 minute period.

[4] = test system: control cells without DNA / wild-type Sf9 cells; assay: Calcium response in control Sf9 cells (without DNA, lipid only, non-transfected, wild type); assay type: cell-based, Spodoptera frugiperda; conditions: Compound 16 10 and 100 nM
Excerpt: as §1
Imaging studies were conducted using a Nikon Diaphot microscope with a 40× oil immersion objective (NA 1.3) Image acquisition and processing was performed using the MetaFluor™ imaging system from Universal Imaging Corporation (West Chester, Pa.) Calcium calibration was carried out using the Grynkiewicz equation with a dissociation constant (Kd) of 145 nM for Fura-2 (Grynkiewicz et al., 1985). Cell-attached coverslips were placed in a sealed chamber with physiological saline continuously perfused across the cells using a peristaltic pump. Test compounds solubilized in physiological saline were applied by switching the perfusate source.
as §2

native cockroach ryanodine receptors (roach femoral muscle membranes), sequence (A0ABQ8T696 entry or part of it): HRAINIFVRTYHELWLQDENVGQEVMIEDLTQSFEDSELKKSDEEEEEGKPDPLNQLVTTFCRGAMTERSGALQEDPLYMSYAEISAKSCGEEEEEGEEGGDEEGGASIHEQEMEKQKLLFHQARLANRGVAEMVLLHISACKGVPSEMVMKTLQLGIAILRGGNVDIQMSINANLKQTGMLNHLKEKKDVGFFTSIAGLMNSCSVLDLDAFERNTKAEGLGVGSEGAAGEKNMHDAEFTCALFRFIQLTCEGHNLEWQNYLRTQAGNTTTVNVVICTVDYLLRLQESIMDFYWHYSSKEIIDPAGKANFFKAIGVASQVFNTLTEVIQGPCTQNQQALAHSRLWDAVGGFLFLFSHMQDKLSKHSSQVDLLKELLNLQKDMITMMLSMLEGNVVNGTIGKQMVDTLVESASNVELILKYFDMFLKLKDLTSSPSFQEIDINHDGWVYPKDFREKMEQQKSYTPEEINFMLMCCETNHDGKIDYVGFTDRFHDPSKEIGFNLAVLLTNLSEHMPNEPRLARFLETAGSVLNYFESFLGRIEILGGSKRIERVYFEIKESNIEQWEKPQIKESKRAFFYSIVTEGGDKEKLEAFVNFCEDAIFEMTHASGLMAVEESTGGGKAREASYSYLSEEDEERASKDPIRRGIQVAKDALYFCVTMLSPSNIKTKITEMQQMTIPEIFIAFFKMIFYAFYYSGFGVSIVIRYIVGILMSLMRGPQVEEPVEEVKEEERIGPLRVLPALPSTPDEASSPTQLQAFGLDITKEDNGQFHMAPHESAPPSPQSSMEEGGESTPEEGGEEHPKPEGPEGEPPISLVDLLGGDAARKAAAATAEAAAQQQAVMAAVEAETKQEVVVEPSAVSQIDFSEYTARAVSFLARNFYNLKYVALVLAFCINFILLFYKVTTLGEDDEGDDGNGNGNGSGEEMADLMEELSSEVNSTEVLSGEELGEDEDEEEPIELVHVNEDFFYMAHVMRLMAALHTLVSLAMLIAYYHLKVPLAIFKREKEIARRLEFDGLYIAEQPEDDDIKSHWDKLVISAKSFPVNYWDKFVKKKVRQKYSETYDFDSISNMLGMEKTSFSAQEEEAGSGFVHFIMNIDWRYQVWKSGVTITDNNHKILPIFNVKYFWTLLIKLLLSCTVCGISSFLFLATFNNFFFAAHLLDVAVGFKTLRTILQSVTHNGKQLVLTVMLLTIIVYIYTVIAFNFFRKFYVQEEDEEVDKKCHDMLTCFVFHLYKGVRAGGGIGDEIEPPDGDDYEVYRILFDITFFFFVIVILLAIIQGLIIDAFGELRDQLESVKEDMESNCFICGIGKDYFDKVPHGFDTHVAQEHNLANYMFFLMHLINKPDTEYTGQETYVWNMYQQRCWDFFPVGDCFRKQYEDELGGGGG

Cc1cc(Br)cc(C(=O)NC(C)C)c1NC(=O)c1cc(C(F)(F)F)nn1-c1ncccc1Cl [Cpd 9]
IC50 [1]: < 300 nM
Calcium Release Threshold (nM) P. americana [2]: <300 nM

Ryanodine [reference compound]
Calcium Release (D. melanogaster) [3]: Antagonist
Radioligand Displacement (P. americana) [1]: Inactive
Calcium Release (P. americana) [2]: Antagonist

Cc1cc(Cl)cc(C(=O)NC(C)C)c1NC(=O)c1cc(Cl)nn1-c1ncccc1Cl [Cpd 16]
calcium response in control cells without DNA [4]: No significant calcium responses
calcium response ([3]; Compound 16 10 and 100 nM, Sf9 transiently expressing D. melanogaster ryanodine receptor, 96 hr post-transfection, FIG. 3): calcium responses elicited
Calcium Release Threshold (nM) D. melanogaster [3]: <300 nM
IC50 [1]: < 300 nM
Calcium Release Threshold (nM) P. americana [2]: <300 nM

CNC(=O)c1cc(Cl)cc(C)c1NC(=O)c1cc(C(F)(F)F)nn1-c1ncccc1Cl [Cpd 11]
Calcium Release Threshold (nM) D. melanogaster [3]: <300 nM
IC50 [1]: < 300 nM
Calcium Release Threshold (nM) P. americana [2]: <300 nM

[3H]c1cc(C)c(NC(=O)c2cc(C(F)(F)F)nn2-c2ccccc2F)c(C(=O)NC(C)C)c1 [Cpd 1, 1-(2-Fluorophenyl)-N-[2-methyl-4-tritio-6-[[(1-methylethyl)amino]carbonyl]phenyl]-3-(trifluoromethyl)-1H-pyrazole-5-carboxamide]
Calcium Release Threshold (nM) D. melanogaster [3]: <300 nM
IC50 [1]: < 300 nM

CCNC(=O)c1cc(Br)cc(Br)c1NC(=O)c1cc(C(F)(F)F)nn1-c1ncccc1Cl [Cpd 18]
IC50 [1]: < 300 nM

Cc1cccc(C(=O)NC(C)C)c1NC(=O)c1cc(C(F)(F)F)nn1-c1ccccc1Cl [Cpd 2]
Calcium Release Threshold (nM) D. melanogaster [3]: <300 nM
IC50 [1]: < 300 nM
Calcium Release Threshold (nM) P. americana [2]: <300 nM

Cc1cc(Br)cc(C(=O)NCC(C)C)c1NC(=O)c1cc(C(F)(F)F)nn1-c1ccccc1Cl [Cpd 3]
IC50 [1]: < 300 nM

CNC(=O)c1cccc(C)c1NC(=O)c1cc(C(F)(F)F)nn1-c1ncccc1Cl [Cpd 6]
IC50 [1]: < 300 nM
Calcium Release Threshold (nM) P. americana [2]: <300 nM

CNC(=O)c1cc(Cl)cc(C)c1NC(=O)c1cc(Cl)nn1-c1ncccc1Cl [Cpd 17]
IC50 [1]: < 300 nM
Calcium Release Threshold (nM) P. americana [2]: <300 nM

Cc1cc(Cl)cc(C(=O)NC(C)C)c1NC(=O)c1cc(C(F)(F)F)nn1-c1ncccc1Cl [Cpd 10]
IC50 [1]: < 300 nM
Calcium Release Threshold (nM) P. americana [2]: <300 nM

Oc1c(Br)cc2[nH]c3cnccc3c2c1Br [Bromoeudistomin D, reference compound]
Calcium Release (P. americana) [2]: Agonist

N.N.N.N.N.N.N.N.N.N.N.N.N.N.[Cl-].[Cl-].[Cl-].[Cl-].[Cl-].[Cl-].[O-2].[O-2].[Ru+3].[Ru+3].[Ru+4] [Ruthenium Red, reference compound]
Calcium Release (D. melanogaster) [3]: Antagonist
Radioligand Displacement (P. americana) [1]: Displacer
Calcium Release (P. americana) [2]: Inactive

CNC(=O)c1cc(Br)cc(C)c1NC(=O)c1cc(C(F)(F)F)nn1-c1ncccc1Cl [Cpd 15]
IC50 [1]: < 300 nM
Calcium Release Threshold (nM) P. americana [2]: <300 nM

Cc1cc(Cl)cc(C(=O)NC(C)C)c1NC(=O)c1cc(Br)nn1-c1ncccc1Cl [Cpd 13]
IC50 [1]: < 300 nM

COc1cccc2c1C(=O)c1c(O)c3c(c(O)c1C2=O)C[C@@](O)(C(=O)CO)C[C@@H]3O[C@H]1C[C@H](N)[C@H](O)[C@H](C)O1.Cl [Doxorubicin, reference compound]
Calcium Release (P. americana) [2]: Inactive

Cc1cccc(C(=O)NC(C)C)c1NC(=O)c1cc(Cl)nn1-c1ncccc1Cl [Cpd 8]
IC50 [1]: < 300 nM
Calcium Release Threshold (nM) P. americana [2]: <300 nM

Cc1cccc(C(=O)NC(C)C)c1NC(=O)c1cc(Br)nn1-c1ncccc1Cl [Cpd 7]
IC50 [1]: < 300 nM
Calcium Release Threshold (nM) P. americana [2]: <300 nM

Cc1cc(Br)cc(C(=O)NC(C)C)c1NC(=O)c1cc(Br)nn1-c1ncccc1Cl [Cpd 12]
IC50 [1]: < 300 nM
Calcium Release Threshold (nM) P. americana [2]: <300 nM

Reference: patent US7655395B2, “Isolation and use of ryanodine receptors” (E.I. du Pont de Nemours and Company, priority 2002, dated 2010)
